We go through 23 compounds from patent US20240239816A1, “BORONO-PHENYLALANINE DERIVATIVE” (STELLA PHARMA CORPORATION, priority 2021, published 2024).

Tested on in the first series: not listed separately
Nature of the series: Single dose toxicity test. The series is classed as in vivo. The following applies: single tail vein injection, 250, 500 and 1000 mg/kg, 5 animals per group, observation period 8 days. Here is the method:
In a beaker, 17.6 mL of 1 mol/L NaOH was put, and 24 mL of water for injection was further added and mixed. To this was added 2.52 g of D-sorbitol. After confirming complete dissolution, 17.1 mL of 1 mol/L hydrochloric acid was added to adjust the pH to 7.4 to 7.8. The mixture was transferred to a measuring cylinder, the beaker was washed with water for injection, and the washing liquid was transferred to the measuring cylinder. This operation was repeated as much as possible, and the volume of the liquid in the measuring cylinder was increased to 80 mL while the beaker was washed. The mixture was filtration-sterilized with a filter (Millex GV, pore size: 0.22 μm, Merck, sterilized disposable product), affording a 3.15% D-sorbitol solution.
On the other hand, 10.1 mL of a 1 mol/L aqueous sodium hydroxide solution was put in a beaker, and 13.8 mL of water for injection was further added and mixed. To this were added 2.30 g of test substance and 1.45 g of D-sorbitol. After confirming complete dissolution, 1.36 mL of 1 mol/L hydrochloric acid was added to adjust the pH to 7.4 to 7.8. The mixture was transferred to a measuring cylinder, the beaker was washed with water for injection, and the washing liquid was transferred to the measuring cylinder. […]
Regarding `C[C@](N)(Cc1ccc(B(O)O)cc1F)C(=O)O` [Example 1, (S)-2-amino-3-(4-borono-2-fluorophenyl)-2-methylpropanoic acid], the “change due to administration of the test substance (single dose toxicity)” value was “no serious change due to the administration of the test substance was observed in any of the administration groups”.

Regarding `C[C@](N)(Cc1ccc(B(O)O)cc1Cl)C(=O)O` [Example 9, (S)-2-Amino-3-(4-borono-2-chlorophenyl)-2-methylpropanoic acid], the “change due to administration of the test substance (single dose toxicity)” value is given as “no serious change due to the administration of the test substance was observed in any of the administration groups”.

The test system of a further series is human LAT1 and LAT2 highly expressing HEK 293 cell lines. Nature of the series: Evaluation of LAT1 and LAT2-selective uptake. Type of series: cell-based. Conditions: (uptake in LAT1 cells / L-BPA uptake in LAT1 cells)/(uptake in LAT2 cells / L-BPA uptake in LAT2 cells); substrate concentration 0.1 mM; relative to L-BPA on the same day. As for the experimental part: HEK 293 cells that stably highly express human LAT1 and LAT2 respectively were prepared according to the method described in the article of Khunweeraphong, N et al. (Journal of Pharmacology Science, 2012, vol. 119, pp 368-380). A shuttle vector DNA (LAT1: EX-H 4509-M02, LAT2: EX-U0514-M02, manufactured by GeneCopoeia) having ampicillin and neomycin resistance markers and having full-length cDNA of human LAT1 or LAT2 inserted under the promoter of cytomegalovirus (CMV) was constructed. This vector was transfected into HEK 293 cells by a method using Lipofectamine (registered trademark) 2000 (Invitrogen) in accordance with the manufacturer's instructions. Thereafter, the stably expressing cell clone of the transgene was selected by the limiting dilution method in the presence of 0.9 mg/mL Geneticin (registered trademark), and a cell clone in which the uptake of L-boronophenylalanine (L-BPA) was enhanced by about 2 to about 5 times as compared with HEK 293 cells before transfection was obtained. This cell was passaged and used for evaluation of LAT1 and LAT2-selective uptake.
As a method for evaluating cell uptake, the same method as in the article of Khunweeraphong, N et al. (Journal of Pharmacology Science, 2012, vol. 119, pp 368-380) was used. Each of the cells obtained in (1) was used for evaluation. Radioactive isotopes were not used, a substrate concentration was 0.1 mM, and 2 mM BCH (2-amino-2-norbonanecarboxylic acid) was used as an LAT1 and LAT2 inhibitor. The reacted cells were collected with 0.05% Tween 20 and the concentration of the 4-borono-phenylalanine derivative in the cell fluid was determined. Quantification of the 4-borono-phenylalanine derivative in cells was performed in accordance with the method described in the article of Hattori, Y, et al. (Sensors 2017, 17, 2436), using 2-(2-hydroxyphenyl)pyridine (boron sensor 5) as a boron sensor. In the evaluation of cell uptake, in consideration of variations between experiments, the cell uptake was evaluated as a value (LAT1 selectivity) relative to the uptake of L-BPA as a comparative object performed on the same day.
LAT1 selectivity=(quantitative value of uptake of the compound in LAT1 cells/quantitative value of uptake of control L-BPA in LAT1 cells)/(quantitative value of uptake of the compound in LAT2 cells/quantitative value of uptake of control L-BPA in LAT2 cells)
For the compound `C[C@](N)(Cc1ccc(B(O)O)cc1F)C(=O)O` [Example 1, (S)-2-amino-3-(4-borono-2-fluorophenyl)-2-methylpropanoic acid], the LAT1 selectivity entry is listed as “twice or more”.

In the case of `COc1cc(B(O)O)ccc1C[C@](C)(N)C(=O)O` [Example 7, (S)-2-Amino-3-(4-borono-2-methoxyphenyl)-2-methylpropanoic acid], the LAT1 selectivity entry was “twice or more”.

Consider `Cc1cc(C[C@](C)(N)C(=O)O)ccc1B(O)O` [Example 17, (S)-2-Amino-3-(4-borono-3-methylphenyl)-2-methylpropanoic acid], for which the LAT1 selectivity result was “twice or more”.

As to `C[C@](N)(Cc1cc(F)c(B(O)O)cc1Cl)C(=O)O` [Example 29, (S)-2-Amino-3-(4-borono-2-chloro-5-fluorophenyl)-2-methylpropanoic acid], the LAT1 selectivity entry is reported as “twice or more”.

Turning to `C[C@](N)(Cc1ccc(B(O)O)cc1C(F)(F)F)C(=O)O` [Example 5, (S)-2-Amino-3-(4-borono-2-(trifluoromethyl)phenyl)-2-methylpropanoic acid], the LAT1 selectivity result is reported as “twice or more”.

Consider `C[C@](N)(Cc1ccc(B(O)O)c(F)c1F)C(=O)O` [Example 14, (S)-2-Amino-3-(4-borono-2,3-difluorophenyl)-2-methylpropanoic acid], for which the LAT1 selectivity entry is “twice or more”.

With `C[C@@](N)(Cc1ccc(B(O)O)cc1C(F)(F)F)C(=O)O` [Example 6, (R)-2-Amino-3-(4-borono-2-(trifluoromethyl)phenyl)-2-methylpropanoic acid], the LAT1 selectivity result is listed as “twice or more”.

With `Cc1cc(B(O)O)ccc1C[C@](C)(N)C(=O)O` [Example 3, (S)-2-Amino-3-(4-borono-2-methylphenyl)-2-methylpropanoic acid], the LAT1 selectivity result was “twice or more”.

Take `C[C@](N)(Cc1cc(Cl)c(B(O)O)cc1F)C(=O)O` [Example 13, (S)-2-Amino-3-(4-borono-5-chloro-2-fluorophenyl)-2-methylpropanoic acid]: the LAT1 selectivity entry is “twice or more”.

As to `C[C@@](N)(Cc1ccc(B(O)O)c(F)c1)C(=O)O` [Example 16, (R)-2-Amino-3-(4-borono-3-fluorophenyl)-2-methylpropanoic acid], the LAT1 selectivity entry is recorded as “twice or more”.

With `C[C@](N)(Cc1ccc(B(O)O)cc1C(F)F)C(=O)O` [Example 35, (S)-2-Amino-3-(4-borono-2-(difluoromethyl)phenyl)-2-methylpropanoic acid], the LAT1 selectivity entry was “twice or more”.

On to `C[C@](N)(Cc1ccc(B(O)O)cc1Cl)C(=O)O` [Example 9, (S)-2-Amino-3-(4-borono-2-chlorophenyl)-2-methylpropanoic acid], for which the LAT1 selectivity entry was “twice or more”.

In the case of `Cc1cc(C[C@H](N)C(=O)O)ncc1B(O)O` [Example 51, (S)-2-Amino-3-(5-borono-4-methylpyridin-2-yl)propanoic acid], the LAT1 selectivity result is given as “twice or more”.

For `N[C@@H](Cc1ccc(B(O)O)cn1)C(=O)O` [Example 44, (S)-2-Amino-3-(5-boronopyridin-2-yl)propanoic acid], the LAT1 selectivity entry is recorded as “twice or more”.

Turning to `C[C@](N)(Cc1ccc(B(O)O)c(Cl)c1)C(=O)O` [Example 37, (S)-2-Amino-3-(4-borono-3-chlorophenyl)-2-methylpropanoic acid], the LAT1 selectivity entry is on record as “twice or more”.

Consider `C[C@](N)(Cc1ccc(B(O)O)c(F)c1)C(=O)O` [Example 15, (S)-2-Amino-3-(4-borono-3-fluorophenyl)-2-methylpropanoic acid], for which the LAT1 selectivity result is “twice or more”.

As for `N[C@@H](Cc1ncc(B(O)O)cc1Cl)C(=O)O` [Example 50, (S)-2-Amino-3-(5-borono-3-chloropyridin-2-yl)propanoic acid], the LAT1 selectivity entry is “twice or more”.

Turning to `Cc1cc(B(O)O)ccc1C[C@@](C)(N)C(=O)O` [Example 4, (R)-2-Amino-3-(4-borono-2-methylphenyl)-2-methylpropanoic acid], the LAT1 selectivity result is “twice or more”.

Consider `Cc1cc(B(O)O)cnc1C[C@H](N)C(=O)O` [Example 49, (S)-2-Amino-3-(5-borono-3-methylpyridin-2-yl)propanoic acid], for which the LAT1 selectivity entry is “twice or more”.

`C[C@@](N)(Cc1ccc(B(O)O)cc1F)C(=O)O` [Example 2, (R)-2-Amino-3-(4-borono-2-fluorophenyl)-2-methylpropanoic acid]: the LAT1 selectivity result was “twice or more”.

As to `CSc1cc(B(O)O)ccc1C[C@](C)(N)C(=O)O` [Example 34, (S)-2-Amino-3-(4-borono-2-(methylthio)phenyl)-2-methylpropanoic acid], the LAT1 selectivity entry is on record as “twice or more”.

For `C[C@](N)(Cc1c(F)cc(B(O)O)cc1F)C(=O)O` [Example 11, (S)-2-Amino-3-(4-borono-2,6-difluorophenyl)-2-methylpropanoic acid], the LAT1 selectivity entry is “twice or more”.

Regarding `C[C@@](N)(Cc1ccc(B(O)O)cc1C(F)F)C(=O)O` [Example 36, (R)-2-Amino-3-(4-borono-2-(difluoromethyl)phenyl)-2-methylpropanoic acid], the LAT1 selectivity entry was “twice or more”.
